The values that follow come from US10508120B2, “TYK2 inhibitors and uses thereof” (Nimbus Lakshmi, Inc., priority 2017, dated 2019).

Read-outs that look alike come from different tables or passages of the source.

Assay [1] concerns the target human TYK2 (JH2domain-pseudokinase) (Homo sapiens (Human), UniProt P29597). Kind of assay: TYK2 JH2 Domain Binding Assay (KINOMEscan). Summed up: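 Displacement of a DNA-tagged TYK2 JH2 fusion (human, aa G556–D888, HEK293 extract, <0.1 nM) from ligand-coated beads over 1 h at RT; binding buffer PBS/0.05% Tween 20/10 mM DTT/0.1% BSA.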
Another assay has as its target JAK2 kinase domain (JH1) (Homo sapiens (Human), UniProt O60674). Kind of assay: JAK2 Radioactive Kinase Assay. In kind it is biochemical. As to conditions: for inhibition at 10 µM: read-out: JAK2 JH1% Inhibition @ 10 μM. The method in brief:
(§1)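 Compounds were tested at a single concentration of 10 μM in a radiometric kinase format against each isolated kinase domain. Activity is reported as percent inhibition at that concentration.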

The target in another assay is Tyk2 kinase domain (DH1) (Homo sapiens (Human), UniProt P29597). Kind of assay: Tyk2 Radioactive Kinase Assay. In kind it is biochemical. To be noted: for inhibition at 10 µM: read-out: Tyk2 JH1% Inhibition @ 10 μM. The method in brief: as §1
Chain of Tyk2 kinase domain (DH1) (P29597 897-1176): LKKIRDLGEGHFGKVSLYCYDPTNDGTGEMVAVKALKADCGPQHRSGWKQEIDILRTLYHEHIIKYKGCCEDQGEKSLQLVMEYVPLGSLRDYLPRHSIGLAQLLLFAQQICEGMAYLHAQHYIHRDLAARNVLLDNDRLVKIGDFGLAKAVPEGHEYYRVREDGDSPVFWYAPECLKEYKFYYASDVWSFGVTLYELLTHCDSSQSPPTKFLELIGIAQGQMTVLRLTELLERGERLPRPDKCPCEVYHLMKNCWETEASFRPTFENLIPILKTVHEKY

Chain of human TYK2 (JH2domain-pseudokinase) (P29597 556-888): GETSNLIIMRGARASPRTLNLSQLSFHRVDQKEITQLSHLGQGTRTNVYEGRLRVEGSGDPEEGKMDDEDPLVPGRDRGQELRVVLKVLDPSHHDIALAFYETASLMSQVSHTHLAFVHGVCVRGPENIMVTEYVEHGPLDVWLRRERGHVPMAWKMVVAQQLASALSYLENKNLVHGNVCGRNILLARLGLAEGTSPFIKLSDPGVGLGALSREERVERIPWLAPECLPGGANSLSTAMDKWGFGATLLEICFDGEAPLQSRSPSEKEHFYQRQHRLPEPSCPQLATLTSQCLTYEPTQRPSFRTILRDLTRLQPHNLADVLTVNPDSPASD
Chain of JAK2 kinase domain (JH1) (O60674 849-1124): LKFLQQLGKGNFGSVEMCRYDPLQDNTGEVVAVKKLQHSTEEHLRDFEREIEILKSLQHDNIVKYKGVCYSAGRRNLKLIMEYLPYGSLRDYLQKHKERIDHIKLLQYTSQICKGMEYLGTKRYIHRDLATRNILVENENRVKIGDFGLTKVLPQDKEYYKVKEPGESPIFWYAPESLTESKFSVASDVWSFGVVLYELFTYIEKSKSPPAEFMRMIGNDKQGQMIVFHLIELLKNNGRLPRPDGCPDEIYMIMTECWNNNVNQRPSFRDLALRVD

As for `CNc1cc(Nc2cccnc2OC2CC2)nc2c(C(=O)N[C@H]3C[C@@H]3O)cnn12` [I-439, 5-((2-cyclopropoxypyridin-3-yl)amino)-N-((1S,2S)-2-hydroxycyclopropyl)-7-(methylamino)pyrazolo[1,5-a]pyrimidine-3-carboxamide], the Kd (in general, the concentration at which binding is half-saturated) in assay [1] is 200 to 1000 pM. Moreover, the inhibition (usually how much of the control response was suppressed) at 10 µM on JAK2 kinase domain (JH1) (compound at 10 μM, ATP 10 μM) is under 50%; on Tyk2 kinase domain (DH1) (compound at 10 μM, ATP 10 μM), under 50%.
Turning to `CNc1cc(Nc2cccn(C3CCOCC3)c2=O)nc2c(C(=O)NC[C@@H](C)CO)cnn12` [I-1032], the dissociation constant (Kd) in assay [1] lay in the range of 200 to 1000 pM. The inhibition at 10 µM was under 50% on JAK2 kinase domain (JH1) (10 μM compound, 10 μM ATP) and under 50% at Tyk2 kinase domain (DH1) (10 μM compound, 10 μM ATP).
For `CNc1cc(Nc2cccn([C@@H]3CCCOC3)c2=O)nc2c(C(=O)N[C@H]3CC[C@H](O)C3)cnn12` [I-738], the equilibrium dissociation constant (Kd) in assay [1] was 200 to 1000 pM. For the same compound, at JAK2 kinase domain (JH1) (compound at 10 μM, ATP 10 μM), the “JAK2 JH1% Inhibition @ 10 μM” value is on record as “A (percent inhibition at 10 μM lower than 50)”. For the same compound, the “Tyk2 JH1% Inhibition @ 10 μM” value at Tyk2 kinase domain (DH1) (compound at 10 μM, ATP 10 μM) was “A (percent inhibition at 10 μM lower than 50)”.
For `[2H]C([2H])([2H])Oc1ncccc1Nc1cc(NC)n2ncc(C(=O)NC3[C@H]4COC[C@@H]34)c2n1` (stereo partly drawn) [I-447], the Kd in assay [1] was under 200 pM. Also, the inhibition at 10 µM on JAK2 kinase domain (JH1) (compound at 10 μM, ATP 10 μM) is under 50%; at Tyk2 kinase domain (DH1) (compound at 10 μM, ATP 10 μM) it was under 50%.
In assay [1], `CNc1cc(Nc2c(F)ccn(-c3nccs3)c2=O)nc2c(C(=O)N[C@H]3C[C@H]3F)cnn12` [I-624] displayed a Kd of 200 to 1000 pM. Further, the inhibition at 10 µM on JAK2 kinase domain (JH1) (compound at 10 μM, ATP 10 μM) is under 50%; at Tyk2 kinase domain (DH1) (compound at 10 μM, ATP 10 μM), 70 to 90%.
`CNc1cc(Nc2cccc(N3CCC4(CCCO4)CC3)n2)nc2c(C(=O)N[C@@H]3CC[C@@H]3O)cnn12` [I-720]: the Kd in assay [1] lay in the range of 1000 to 10000 pM. Besides, the “JAK2 JH1% Inhibition @ 10 μM” value at JAK2 kinase domain (JH1) (compound at 10 μM, ATP 10 μM) is reported as “A (percent inhibition at 10 μM lower than 50)”. Also, the “Tyk2 JH1% Inhibition @ 10 μM” value on Tyk2 kinase domain (DH1) (compound at 10 μM, ATP 10 μM) was “A (percent inhibition at 10 μM lower than 50)”.
`CNc1cc(Nc2cccc(N3CCOCC3)n2)nc2c(C(=O)NC3CC3)cnn12` [I-589] yielded a Kd in assay [1] of under 200 pM. The inhibition at 10 µM on JAK2 kinase domain (JH1) (compound at 10 μM, ATP 10 μM) is under 50%; at Tyk2 kinase domain (DH1) (compound at 10 μM, ATP 10 μM), under 50%.
For the compound `CNc1cc(-c2cn(CCN3CCOCC3)c3ncccc23)nc2c(C(=O)NCC(C)(C)CO)cnn12` [I-818, N-(3-hydroxy-2,2-dimethylpropyl)-7-(methylamino)-5-(1-(2-morpholinoethyl)-1H-pyrrolo[2,3-b]pyridin-3-yl)pyrazolo[1,5-a]pyrimidine-3-carboxamide], in assay [1], the Kd lay in the range of 200 to 1000 pM. The inhibition at 10 µM on JAK2 kinase domain (JH1) (10 μM compound, 10 μM ATP) was under 50%; at Tyk2 kinase domain (DH1) (10 μM compound, 10 μM ATP), under 50%.
Turning to `CNc1cc(Nc2cccn([C@@H]3CC[C@@H]3O)c2=O)nc2c(C(=O)N[C@@H]3C[C@@H]3F)cnn12` [I-1110], in assay [1], the Kd was under 200 pM. Besides, the inhibition at 10 µM at JAK2 kinase domain (JH1) (10 μM compound, 10 μM ATP) is under 50%; at Tyk2 kinase domain (DH1) (10 μM compound, 10 μM ATP) it was under 50%.
In assay [1], `CNc1cc(Nc2cccc([C@H]3CCCOC3)n2)nc2c(C(=O)N[C@H]3CC[C@H]3O)cnn12` [I-642] yielded a Kd of under 200 pM. Also, the inhibition at 10 µM was under 50% on JAK2 kinase domain (JH1) (compound at 10 μM, ATP 10 μM) and under 50% at Tyk2 kinase domain (DH1) (compound at 10 μM, ATP 10 μM).
In assay [1], `CNc1cc(Nc2cccn(-c3ccon3)c2=O)nc2c(C(N)=O)cnn12` [I-43, 5-((1-(isoxazol-3-yl)-2-oxo-1,2-dihydropyridin-3-yl)amino)-7-(methylamino)pyrazolo[1,5-a]pyrimidine-3-carboxamide] gave a Kd of under 200 pM. The inhibition at 10 µM on JAK2 kinase domain (JH1) (compound at 10 μM, ATP 10 μM) was under 50%; at Tyk2 kinase domain (DH1) (compound at 10 μM, ATP 10 μM), under 50%.
Consider `CNc1cc(-c2cn(C(C)C)c3ncc(Cl)cc23)nc2c(C(=O)N[C@@H]3C[C@@H]3F)cnn12` (stereo in doubt) [I-254, 5-(5-chloro-1-isopropyl-1H-pyrrolo[2,3-b]pyridin-3-yl)-N-((1R,2S)-2-fluorocyclopropyl)-7-(methylamino)pyrazolo[1,5-a]pyrimidine-3-carboxamide], for which the dissociation constant (Kd) in assay [1] lay in the range of 200 to 1000 pM. For the same compound, the inhibition at 10 µM is under 50% on JAK2 kinase domain (JH1) (compound at 10 μM, ATP 10 μM) and under 50% on Tyk2 kinase domain (DH1) (compound at 10 μM, ATP 10 μM).
The compound `CNc1cc(-c2cn(CCN3CCOCC3)c3ncccc23)nc2c(C(=O)N[C@H]3CC[C@H]3O)cnn12` [I-778] displayed a dissociation constant Kd in assay [1] of under 200 pM. The inhibition at 10 µM on JAK2 kinase domain (JH1) (compound at 10 μM, ATP 10 μM) is under 50%; at Tyk2 kinase domain (DH1) (compound at 10 μM, ATP 10 μM), under 50%.
In the case of `CNc1cc(Nc2cccn([C@H]3CC[C@@H]3OC)c2=O)nc2c(C(=O)N[C@@H]3C[C@@H]3F)cnn12` [I-997], the Kd in assay [1] is under 200 pM. On JAK2 kinase domain (JH1) (10 μM compound, 10 μM ATP), the “JAK2 JH1% Inhibition @ 10 μM” value is “A (percent inhibition at 10 μM lower than 50)”. In addition, on Tyk2 kinase domain (DH1) (10 μM compound, 10 μM ATP), the “Tyk2 JH1% Inhibition @ 10 μM” value was “A (percent inhibition at 10 μM lower than 50)”.
As to `CNc1cc(Nc2cc(Cl)cnc2O[C@H]2C[C@@H](OC)C2)nc2c(C(N)=O)cnn12` [I-96], in assay [1], the dissociation constant Kd lay in the range of 200 to 1000 pM. The inhibition at 10 µM was under 50% at JAK2 kinase domain (JH1) (compound at 10 μM, ATP 10 μM) and under 50% at Tyk2 kinase domain (DH1) (compound at 10 μM, ATP 10 μM).
On to `CNc1cc(Nc2cc(Cl)cnc2OC2CCC2)nc2c(C(N)=O)cnn12` [I-80], for which, in assay [1], the equilibrium dissociation constant (Kd) was 200 to 1000 pM. Also, the inhibition at 10 µM was under 50% on JAK2 kinase domain (JH1) (compound at 10 μM, ATP 10 μM) and under 50% on Tyk2 kinase domain (DH1) (compound at 10 μM, ATP 10 μM).
In assay [1], `CNc1cc(Nc2cccn3cnnc23)nc2c(C(=O)NC3CC3)cnn12` [I-659] showed a dissociation constant Kd of under 200 pM. Also, the inhibition at 10 µM at JAK2 kinase domain (JH1) (compound at 10 μM, ATP 10 μM) was under 50%; at Tyk2 kinase domain (DH1) (compound at 10 μM, ATP 10 μM) it was under 50%.
With `CNc1cc(Nc2cccc(C3CCCCO3)n2)nc2c(C(=O)NC3CC3)cnn12` (stereo in doubt) [I-463, (R)—N-cyclopropyl-7-(methylamino)-5-((6-(tetrahydro-2H-pyran-2-yl)pyridin-2-yl)amino) pyrazolo[1,5-a]pyrimidine-3-carboxamide], the dissociation constant (Kd) in assay [1] lay within 200 to 1000 pM. In addition, the inhibition at 10 µM is 50 to 70% on JAK2 kinase domain (JH1) (compound at 10 μM, ATP 10 μM) and under 50% at Tyk2 kinase domain (DH1) (compound at 10 μM, ATP 10 μM).
The corresponding values for `CNc1cc(Nc2cccn(CCOC3CC3)c2=O)nc2c(C(=O)N[C@@H]3CC[C@H]3O)cnn12` [I-472, 5-((1-(2-cyclopropoyethyl)-2-oxo-1,2-dihydropyridin-3-yl)amino)-N-(2-hydroxycyclobutyl)-7-(methylamino)pyrazolo[1,5-a]pyrimidine-3-carboxamide] are 200 to 1000 pM, under 50% and under 50%.
`CNc1cc(Nc2cccnc2OC2CC2)nc2c(C(=O)N[C@H]3CCC[C@@H]3O)cnn12` [I-466, 5-((2-cyclopropoxypyridin-3-yl)amino)-N-((1S,2S)-2-hydroxycyclopentyl)-7-(methylamino)pyrazolo[1,5-a]pyrimidine-3-carboxamide] came in with a Kd in assay [1] of 200 to 1000 pM. Also, the inhibition at 10 µM on JAK2 kinase domain (JH1) (compound at 10 μM, ATP 10 μM) is under 50%; at Tyk2 kinase domain (DH1) (compound at 10 μM, ATP 10 μM) it was under 50%.
For the compound `CNc1cc(Nc2cccc3ocnc23)nc2c(C(=O)NCC3(CO)CC3)cnn12` [I-749], the Kd in assay [1] was under 200 pM. The inhibition at 10 µM at JAK2 kinase domain (JH1) (compound at 10 μM, ATP 10 μM) is under 50%; on Tyk2 kinase domain (DH1) (compound at 10 μM, ATP 10 μM), under 50%.
In turn, `NC(=O)c1cnn2c(N)cc(Nc3cc(Cl)cnc3OC3CCC3)nc12` [I-81] displayed a Kd in assay [1] of 1000 to 10000 pM. Moreover, the inhibition at 10 µM is under 50% at JAK2 kinase domain (JH1) (compound at 10 μM, ATP 10 μM) and under 50% at Tyk2 kinase domain (DH1) (compound at 10 μM, ATP 10 μM).
As to `CNc1cc(Nc2cccc([C@@H]3CCCOC3)n2)nc2c(C(=O)N[C@@H]3CC[C@@H]3O)cnn12` [I-605], the equilibrium dissociation constant (Kd) in assay [1] is under 200 pM. Also, the inhibition at 10 µM at JAK2 kinase domain (JH1) (compound at 10 μM, ATP 10 μM) is under 50%; on Tyk2 kinase domain (DH1) (compound at 10 μM, ATP 10 μM), under 50%.
As for `CNc1cc(Nc2cccn([C@@H]3CCCN(CCC#N)C3)c2=O)nc2c(C(=O)N[C@@H]3C[C@@H]3F)cnn12` [I-1041], in assay [1], the dissociation constant (Kd) was 200 to 1000 pM. For the same compound, the inhibition at 10 µM was under 50% at JAK2 kinase domain (JH1) (10 μM compound, 10 μM ATP) and under 50% at Tyk2 kinase domain (DH1) (10 μM compound, 10 μM ATP).
In the case of `CNc1cc(Nc2cccn(-c3nc(C)co3)c2=O)nc2c(C(=O)N[C@@H]3CC[C@H]3O)cnn12` [I-768], the dissociation constant Kd in assay [1] is under 200 pM. Also, the inhibition at 10 µM on JAK2 kinase domain (JH1) (compound at 10 μM, ATP 10 μM) is under 50%; on Tyk2 kinase domain (DH1) (compound at 10 μM, ATP 10 μM), under 50%.
